Reference: US10815224B2, “Monocyclic heteroaryl substituted compounds” (Bristol-Myers Squibb Company, priority 2016, dated 2020)
pIC50: −log10 of the molar value.

test system: ACS patients; assay: not given; conditions: TRACER phase III trial; cited from earlier work

For `CCOC(=O)N[C@@H]1CC[C@@H]2[C@@H](C1)C[C@H]1C(=O)O[C@H](C)[C@H]1[C@H]2/C=C/c1ccc(-c2cccc(F)c2)cn1` [vorapaxar], the Cardiovascular events is listed as “did not significantly reduce cardiovascular events”.

For `CCOC(=O)N[C@@H]1CC[C@@H]2[C@@H](C1)C[C@H]1C(=O)O[C@H](C)[C@H]1[C@H]2/C=C/c1ccc(-c2cccc(F)c2)cn1` [vorapaxar], the “Risk of major bleeding” value is listed as “significantly increased the risk of major bleeding”.

biological target: T1, PAR4 (Homo sapiens, UniProt Q96RI0); assay: PAR4 FLIPR assay: calcium mobilization in PAR4-expressing HEK293 cells; type: cell-based; conditions: not given
T1 construct: expressed in transfected cells; host or cells: HEK293 PAR4 Clone 1.2A (BMS Arctic ID 383940)
T1 sequence (Q96RI0 18-385): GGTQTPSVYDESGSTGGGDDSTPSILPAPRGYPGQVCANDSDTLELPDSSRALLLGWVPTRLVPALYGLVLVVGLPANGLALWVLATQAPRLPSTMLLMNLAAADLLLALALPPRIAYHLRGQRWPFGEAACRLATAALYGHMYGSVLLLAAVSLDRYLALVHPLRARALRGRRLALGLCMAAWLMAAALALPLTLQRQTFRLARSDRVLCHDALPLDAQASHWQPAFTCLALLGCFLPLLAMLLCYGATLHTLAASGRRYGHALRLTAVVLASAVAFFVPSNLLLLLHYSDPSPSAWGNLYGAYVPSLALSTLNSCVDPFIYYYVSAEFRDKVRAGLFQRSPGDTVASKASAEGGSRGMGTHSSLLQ
Source text: The FLIPR assay is an exemplary in vitro assay for measuring the activity of the PAR4 antagonists of the present invention. In this assay, intracellular calcium mobilization is induced in PAR4 expressing cells by a PAR4 agonist and calcium mobilization is monitored.
HEK293 cells stably expressing PAR4 were generated by a standard method of transfection of human PAR4 (F2R23) cDNA expression vector and selected based on PAR4 protein expression or mRNA expression. […] Therefore, the same cells were also used to determine selectivity against PAR1 and agonist activity for both receptors.
FLIPR-based calcium mobilization assay in HEK293 cells was used to measure PAR4 antagonism, agonism, and selectivity against PAR1. […] Counter screens for agonist activity and PAR1 antagonist activity were also performed. […] Cells were plated overnight prior to the experiment in a black 384-well Purecoat Amine clear bottom plate (Becton Dickinson Biosciences, San Jose, Calif.) at 10,000 cells/well in 30 μL growth medium and incubated in a humidified chamber at 37° C. with 5% CO2 overnight. Prior to compound addition, the cell medium was replaced with 40 μL of 1× calcium and magnesium-containing Hank's Balanced Saline Solution (HBSS) (with 20 mM HEPES) and 1:1000 diluted fluorescent calcium indicator (Codex Biosolutions, Gaithersburg, Md.). After a 30 minute incubation period at 37° C., and a further 30 minute incubation and equilibration period at room temperature, 20 μL test compound (diluted in 1×HBSS buffer) was added at various concentrations at 0.17% dimethyl sulfoxide (DMSO) final concentration. Changes in fluorescence intensity were measured using a Functional Drug Screening System (FDSS, Hamamatsu, Japan) to determine agonist activities. The cells were then incubated for 30 minutes at room temperature followed by addition of 20 μL of agonist peptide for antagonist activity measurement. […] Compound potency was derived from 11-point concentration-response curves.

In order of rising pIC50:
1. Cc1cc(-c2ncc(CO)s2)c2ncc(OC(F)F)nc2c1 [Example 39, (2-(2-(difluoromethoxy)-7-methylquinoxalin-5-yl)thiazol-5-yl)methanol]  5.70
2. Cc1cc(-c2ncc(-c3cccc4[nH]ccc34)s2)c2ncc(OC(F)F)nc2c1 [Example 38, 2-(2-(difluoromethoxy)-7-methylquinoxalin-5-yl)-5-(l H-indol-4-yl)thiazole]  6.09
3. Cc1cc(-c2nccs2)c2ncc(OC(F)F)nc2c1 [Example 34, 2-(2-(difluoromethoxy)-7-methylquinoxalin-5-yl)thiazole]  6.12
4. COc1ccc(-c2cnc(-c3cc(C)cc4nc(OC)cnc34)s2)nc1 [Example 52, 2-(2-methoxy-7-methylquinoxalin-5-yl)-5-(5-methoxypyridin-2-yl)thiazole]  6.26
5. Cc1cc(-c2ncc(-c3ccncc3)s2)c2ncc(OC(F)F)nc2c1 [Example 43, 2-(2-(difluoromethoxy)-7-methylquinoxalin-5-yl)-5-(pyridin-4-yl)thiazole]  6.48
6. COCc1cnc2c(-c3ncc(-c4ccc(OC)cn4)s3)cc(C)cc2n1 [Example 53, 2-(2-(methoxymethyl)-7-methylquinoxalin-5-yl)-5-(5-methoxypyridin-2-yl)thiazole]  6.54
7. Cc1cc(-c2ncc(-c3ccc4cc[nH]c4c3)s2)c2ncc(OC(F)F)nc2c1 [Example 42, 2-(2-(difluoromethoxy)-7-methylquinoxalin-5-yl)-5-(1H-indol-6-yl)thiazole]  7.09
8. Cc1cc(-c2ncc(-c3ccccn3)s2)c2ncc(OC(F)F)nc2c1 [Example 44, 2-(2-(difluoromethoxy)-7-methylquinoxalin-5-yl)-5-(pyridin-2-yl)thiazole]  7.10
9. Cc1cc(-c2nc(C)cs2)c2ncc(OC(F)F)nc2c1 [Example 36, 2-(2-(difluoromethoxy)-7-methylquinoxalin-5-yl)-4-methylthiazole]  7.19
10. Cc1cc(-c2ncc(-c3cccc4cc[nH]c34)s2)c2ncc(OC(F)F)nc2c1 [Example 37, 2-(2-(difluoromethoxy)-7-methylquinoxalin-5-yl)-5-(1H-indol-7-yl)thiazole]  7.22
11. COc1cnc2c(-c3nc(C(F)(F)F)c(C(=O)C4CCCCC4)s3)cc(C)cc2n1 [Example 47, Cyclohexyl(2-(2-methoxy-7-methylquinoxalin-5-yl)-4-(trifluoromethyl)thiazol-5-yl) methanone]  7.28
12. Cc1cc(-c2nnc(-c3ccccc3)s2)c2ncc(OC(F)F)nc2c1 [Example 35, 2-(2-(difluoromethoxy)-7-methylquinoxalin-5-yl)-5-phenyl-1,3,4-thiadiazole]  7.60
13. COc1cnc2c(-c3ncc(-c4ccccc4C(F)F)s3)cc(C)cc2n1 [Example 45, 5-(2-(difluoromethyl)phenyl)-2-(2-methoxy-7-methylquinoxalin-5-yl)thiazole]  7.60
14. Cc1cc(-c2ncc(-c3ccn[nH]3)s2)c2ncc(OC(F)F)nc2c1 [Example 40, 2-(2-(difluoromethoxy)-7-methylquinoxalin-5-yl)-5-(1H-pyrazol-5-yl)thiazole]  7.64
15. COCc1cnc2c(-c3ncc(-c4cccc(O)c4)s3)cc(C)cc2n1 [Example 49, 3-(2-(2-(methoxymethyl)-7-methylquinoxalin-5-yl)thiazol-5-yl)phenol]  7.72
16. COc1cnc2c(-c3ncc(-c4cc(O)c(F)c(F)c4)s3)cc(C)cc2n1 [Example 46, 2,3-difluoro-5-(2-(2-methoxy-7-methylquinoxalin-5-yl)thiazol-5-yl)phenol]  7.85
17. Cc1cc(-c2ncc(-c3cccc(O)c3)s2)c2ncc(OC(F)F)nc2c1 [Example 51, 3-(2-(2-(difluoromethoxy)-7-methylquinoxalin-5-yl)thiazol-5-yl)phenol]  8.15
18. COCc1cnc2c(-c3ncc(-c4cc(F)ccc4O)s3)cc(C)cc2n1 [Example 50, 4-fluoro-2-(2-(2-(methoxymethyl)-7-methylquinoxalin-5-yl)thiazol-5-yl)phenol]  8.24
19. COCc1cnc2c(-c3ncc(-c4ccn[nH]4)s3)cc(C)cc2n1 [Example 48, 2-(2-(methoxymethyl)-7-methylquinoxalin-5-yl)-5-(1H-pyrazol-5-yl)thiazole]  8.51

same assay, conditions: HEK293 cells expressing human PAR4; calcium mobilization induced by H-Ala-Phe(4-F)-Pro-Gly-Trp-Leu-Val-Lys-Asn-Gly-NH2

Work on `Cc1cc(-c2nc(C(C)(C)C)cs2)c2ncc(OC(F)F)nc2c1` [Example 41] yielded a pIC50 of 6.35.

biological target: T2, protease-activated receptor type 4 (PAR4) (Homo sapiens, UniProt Q96RI0); assay: not given; conditions: abstract of Lee et al. 2001; cited from earlier work
T2 sequence (Q96RI0 18-385): T1 sequence (Q96RI0 18-385)

For `CCOC(=O)c1ccc(-c2nn(Cc3ccccc3)c3ccccc23)cc1` [YD-3, ethyl 4-(1-benzyl-1H-indazol-3-yl)benzoate], the “Inhibition of PAR4-dependent platelet activation” value is given as “selective and potent inhibitor”.
